The test system of assay [1] is pulmonary arterial smooth muscle cells. As to the kind of experiment: Suppression of proliferation of pulmonary arterial smooth muscle cells (PDGF-BB stimulation, BrdU). Format: cell-based. The settings on record: PASMC, 24 h; healthy human derived pulmonary arterial smooth muscle cells; human PDGF-BB 10 ng/mL stimulation; BrdU uptake after 1 day; test substance final concentration 3 to 10,000 nM; read-out: Human normal PASMC proliferation suppression (PDGF stimulation_IC50). The protocol:
(§1) 1. Preparation of Test Substance
Furthermore, it was diluted by 50 times with distilled water.
2. Measurement of Suppression Action Against Proliferation of Pulmonary Arterial Smooth Muscle Cells
The day after healthy human derived pulmonary arterial smooth muscle cells were seeded onto a 96 well plate using a smooth muscle cell proliferation medium, the proliferation medium was replaced with a 0.1% FBS medium, and the cells were cultured for an additional day. A test substance solution was diluted by 10 times with a medium containing BrdU and human PDGF-BB (final concentration of 10 ng/mL, Sigma-Aldrich) and added to cells in equal amounts so as to reach a final concentration of 3 to 10,000 nM. Also, to the human PDGF-BB negative control, BrdU and 0.1% DMSO solution were added. After culturing for 1 day, the amount of BrdU taken up by the proliferating cells was measured using an anti-BrdU antibody.
(§2) 3. Analysis of Measurement Results

In the next assay the target is PDGFR-β (Homo sapiens (Human), UniProt P09619). The assay can be described thus: PDGFR-β tyrosine kinase inhibitory action (HTRF KinEASE-TK). Format: biochemical. As to conditions: PDGFR-β enzyme 1 ng/μL, 30° C. for 30 minutes; read-out: PDGF-β IC50. The method, then:
as §1
This DMSO solution was diluted by 8 times with an assay buffer 1 (50 mM HEPES (pH 7.0), 0.02% NaN3, 0.01% Bovine Serum Albumin, 0.1 mM orthovanadate, 1 mM Dithiothreitol, 5 mM MgCl2, and 1 mM MnCl2) and further diluted by 5 times with an assay buffer 2 (50 mM HEPES (pH 7.0), 0.02% NaN3, 0.01% Bovine Serum Albumin, 0.1 mM orthovanadate, 1 mM Dithiothreitol, 5 mM MgCl2, 1 mM MnCl2, and 40 nM Supplemented Enzymatic Buffer (cisbio)).
2. Measurement of PDGFR-β Tyrosine Kinase Inhibitory Action
For the measurement, the HTRF KinEASE-TK kit from Cisbio Bioassays SAS was used. To a 384 well plate, the test substance solution was added at 4 μL each, then 2 μL of a PDGFR-β enzyme solution (final concentration of 1 ng/μL, Carna Biosciences, Inc.) and 4 μL of a substrate solution obtained by adding 0.6 μM ATP to TK substrate-3-biotin (cisbio) were added, and the solution was allowed to react at 30° C. for 30 minutes at a final concentration of the test substance being 0.01 to 10,000 nM.
Thereafter, 10 μL of a detection solution (cisbio) was added to each well and allowed to react at 30° C. for 1 hour. The fluorescence intensity was measured with a microplate reader (Spectra Max M5, Molecular device).
as §2
For orientation: In TR-FRET formats the signal depends on donor and acceptor labels being close together.

Chain of PDGFR-β (P09619 33-1106): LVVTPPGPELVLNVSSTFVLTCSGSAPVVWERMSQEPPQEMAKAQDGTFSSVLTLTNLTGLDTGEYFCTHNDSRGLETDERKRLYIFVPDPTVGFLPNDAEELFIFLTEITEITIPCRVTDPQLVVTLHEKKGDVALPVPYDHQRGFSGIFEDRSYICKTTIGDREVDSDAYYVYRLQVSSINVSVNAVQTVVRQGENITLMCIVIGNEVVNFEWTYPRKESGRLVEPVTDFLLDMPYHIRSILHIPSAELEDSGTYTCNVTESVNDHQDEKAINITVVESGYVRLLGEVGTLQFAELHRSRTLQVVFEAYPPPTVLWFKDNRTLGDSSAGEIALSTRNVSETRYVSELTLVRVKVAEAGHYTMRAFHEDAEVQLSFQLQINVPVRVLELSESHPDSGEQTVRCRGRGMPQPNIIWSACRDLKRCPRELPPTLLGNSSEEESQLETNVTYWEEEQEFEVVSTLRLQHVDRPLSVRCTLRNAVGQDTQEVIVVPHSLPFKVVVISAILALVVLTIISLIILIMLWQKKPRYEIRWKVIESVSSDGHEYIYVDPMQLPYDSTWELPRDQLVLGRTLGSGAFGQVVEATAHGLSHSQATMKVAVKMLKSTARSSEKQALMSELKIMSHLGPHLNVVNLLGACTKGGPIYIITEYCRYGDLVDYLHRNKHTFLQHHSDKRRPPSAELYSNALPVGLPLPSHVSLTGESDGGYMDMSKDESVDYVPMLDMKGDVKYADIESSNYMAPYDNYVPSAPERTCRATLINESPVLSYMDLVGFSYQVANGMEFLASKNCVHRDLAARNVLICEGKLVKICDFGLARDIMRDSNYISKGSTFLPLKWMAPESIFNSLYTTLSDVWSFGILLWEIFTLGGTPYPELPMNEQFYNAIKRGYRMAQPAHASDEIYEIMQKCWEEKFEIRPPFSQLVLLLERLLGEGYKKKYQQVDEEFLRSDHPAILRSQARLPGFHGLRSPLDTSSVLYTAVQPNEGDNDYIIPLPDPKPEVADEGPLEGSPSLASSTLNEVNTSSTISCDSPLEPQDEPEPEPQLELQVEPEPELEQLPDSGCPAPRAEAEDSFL

For `O=C(N[C@H]1CCCC[C@@H]1O)c1ccc(Cl)c(NC(=O)c2cnc(CC3CC3)s2)c1` [Example 55, N-(2-chloro-5-{[(1S,2S)-2-hydroxycyclohexyl]carbamoyl}phenyl)-2-(cyclopropylmethyl)-1,3-thiazole-5-carboxamide], the values for the IC50 (in assay [1]; at PDGFR-β) were 69 nM and 83 nM, respectively.
Taken in the same sequence, the figures for `Cc1ncc(C(=O)N[C@H]2CCCC[C@@H]2O)cc1/C=C(\F)c1ccc(N)nc1` [Example 189, 5-[(Z)-2-(6-aminopyridin-3-yl)-2-fluoroethenyl]-N-[(1S,2S)-2-hydroxycyclohexyl]-6-methylpyridine-3-carboxamide] were 90 nM and 200 nM.
In the case of `Cc1ccc(C(=O)N[C@H]2CCCC[C@@H]2O)cc1/C=C(\F)c1cncc(NC2CCN(C)CC2)c1` [Example 193, 3-[(Z)-2-fluoro-2-{5-[(1-methylpiperidin-4-yl)amino]pyridin-3-yl}ethenyl]-N-[(1S,2S)-2-hydroxycyclohexyl]-4-methylbenzamide], the IC50 in assay [1] came to 18 nM; at PDGFR-β, 1 nM.
The corresponding values for `Cc1ccc(C(=O)N[C@H]2CCCC[C@@H]2O)cc1NC(=O)c1cncc(Oc2ncccn2)c1` [Example 52, N-(5-{[(1S,2S)-2-hydroxycyclohexyl]carbamoyl}-2-methylphenyl)-5-[(pyrimidin-2-yl)oxy]pyridine-3-carboxamide] are 420 nM and 77 nM.
Taken in the same sequence, the figures for `Cc1ccc(C(=O)N[C@H]2CCCC[C@@H]2O)cc1NCc1ccc(-c2ccccn2)nc1` [Example 118, 3-{[([2,2′-bipyridin]-5-yl)methyl]amino}-N-[(1S,2S)-2-hydroxycyclohexyl]-4-methylbenzamide] were 140 nM and 390 nM.
Taken in the same sequence, the figures for `Cc1ccc(C(=O)N[C@H]2CCCC[C@@H]2O)cc1NCc1ccc(NC(=O)C2CC2)nc1` [Example 120, 3-[({6-[(cyclopropanecarbonyl)amino]pyridin-3-yl}methyl)amino]-N-[(1S,2S)-2-hydroxycyclohexyl]-4-methylbenzamide] were 34 nM and 20 nM.
With `Cc1ccc(C(=O)N[C@@H](CO)[C@@H](O)c2ccccc2)cc1C#Cc1cncc(Br)c1` [Example 76, 3-[(5-bromopyridin-3-yl)ethynyl]-N-[(1S,2S)-1,3-dihydroxy-1-phenylpropan-2-yl]-4-methylbenzamide], the IC50 was 27 nM in assay [1] and 49 nM on PDGFR-β.
Take `CCN1CCN(Cc2cncc(/C(F)=C/c3cc(C(=O)N[C@H]4CCCC[C@@H]4O)ccc3C)c2)CC1` [Example 194, 3-[(Z)-2-{5-[(4-ethylpiperazin-1-yl)methyl]pyridin-3-yl}-2-fluoroethenyl]-N-[(1S,2S)-2-hydroxycyclohexyl]-4-methylbenzamide]: the IC50 is 74 nM in assay [1] and 35 nM at PDGFR-β.
Taken in the same sequence, the figures for `Cc1ccc(C(=O)N[C@H]2CCCC[C@@H]2O)cc1NCc1ccc(NCC2CC2)nc1` [Example 117, 3-[({6-[(cyclopropylmethyl)amino]pyridin-3-yl}methyl)amino]-N-[(1S,2S)-2-hydroxycyclohexyl]-4-methylbenzamide] were 230 nM and 79 nM.
In the case of `Cc1ccc(C(=O)N[C@H]2CCCC[C@@H]2O)cc1NCc1cnc(N[C@H]2CCOC2)nc1` [Example 136, N-[(1S,2S)-2-hydroxycyclohexyl]-4-methyl-3-{[(2-{[(3S)-oxolan-3-yl]amino}pyrimidin-5-yl)methyl]amino}benzamide], the IC50 in assay [1] stood at 150 nM; on PDGFR-β it was 32 nM.
As to `Cc1ccc(C(=O)N[C@H]2CCCC[C@@H]2O)cc1NCc1ccc(NC(C)C)nc1` [Example 134, N-[(1S,2S)-2-hydroxycyclohexyl]-4-methyl-3-[({6-[(propan-2-yl)amino]pyridin-3-yl}methyl)amino]benzamide], the figures for the IC50 (in assay [1]; on PDGFR-β) were 60 nM and 170 nM, respectively.
For `Cc1ncc(C(=O)N[C@H]2CCCC[C@@H]2O)cc1/C=C(\F)c1cnc(N)nc1` [Example 190, 5-[(Z)-2-(2-aminopyrimidin-5-yl)-2-fluoroethenyl]-N-[(1S,2S)-2-hydroxycyclohexyl]-6-methylpyridine-3-carboxamide], the IC50 (in assay [1]; on PDGFR-β) was 110 nM throughout.
For `Cc1ccc(C(=O)N[C@H]2CCCC[C@@H]2O)cc1NCc1ccc(NC(=O)N2CCOCC2)nc1` [Example 127, N-{5-[(5-{[(1S,2S)-2-hydroxycyclohexyl]carbamoyl}-2-methylanilino)methyl]pyridin-2-yl}morpholine-4-carboxamide], the IC50 in assay [1] is 45 nM; at PDGFR-β it was 63 nM.
The corresponding values for `O=C(N[C@H]1CCCC[C@@H]1O)c1cccc(CNc2cncc(-c3ncccn3)c2)c1` [Example 150, N-[(1S,2S)-2-hydroxycyclohexyl]-3-({[5-(pyrimidin-2-yl)pyridin-3-yl]amino}methyl)benzamide] are 300 nM and 360 nM.
As to `Cc1ccc(C(=O)N[C@H]2CCCC[C@@H]2O)cc1NCc1ccc(NC(=O)N(C)C2CC2)nc1` [Example 133, 3-{[(6-{[cyclopropyl(methyl)carbamoyl]amino}pyridin-3-yl)methyl]amino}-N-[(1S,2S)-2-hydroxycyclohexyl]-4-methylbenzamide], the results for the IC50 (in assay [1]; at PDGFR-β) were 110 nM and 170 nM, respectively.
With `Cc1ccc(C(=O)N[C@H]2CCCC[C@@H]2O)cc1NCc1ccc(NC2CCC2)nc1` [Example 130, 3-({[6-(cyclobutylamino)pyridin-3-yl]methyl}amino)-N-[(1S,2S)-2-hydroxycyclohexyl]-4-methylbenzamide], the results for the IC50 (in assay [1]; on PDGFR-β) were 53 nM and 80 nM, respectively.
`Cc1ncc(C(=O)N[C@H]2CCCC[C@@H]2O)cc1/C=C(\F)c1cncc(OCC2CC2)c1` [Example 187, 5-{(Z)-2-[5-(cyclopropylmethoxy)pyridin-3-yl]-2-fluoroethenyl}-N-[(1S,2S)-2-hydroxycyclohexyl]-6-methylpyridine-3-carboxamide]: the IC50 in assay [1] was found to be 20 nM; at PDGFR-β it was 14 nM.
The corresponding values for `Cc1ccc(C(=O)N[C@H]2CCCC[C@@H]2O)cc1NCc1cnc(Nc2ccccn2)nc1` [Example 126, N-[(1S,2S)-2-hydroxycyclohexyl]-4-methyl-3-[({2-[(pyridin-2-yl)amino]pyrimidin-5-yl}methyl)amino]benzamide] are 64 nM and 45 nM.
The corresponding values for `Cc1ccc(C(=O)N[C@H]2CCCC[C@@H]2O)cc1NCc1cnc2[nH]ncc2c1` [Example 109, N-[(1S,2S)-2-hydroxycyclohexyl]-4-methyl-3-{[(1H-pyrazolo[3,4-b]pyridin-5-yl)methyl]amino}benzamide] are 170 nM and 46 nM.
Taken in the same sequence, the figures for `Cc1ncc(C(=O)N[C@H]2CCCC[C@@H]2O)cc1/C=C(\F)c1cncc(N2CCOCC2)c1` [Example 188, 5-{(Z)-2-fluoro-2-[5-(morpholin-4-yl)pyridin-3-yl]ethenyl}-N-[(1S,2S)-2-hydroxycyclohexyl]-6-methylpyridine-3-carboxamide] were 60 nM and 68 nM.
As to `Nc1ccc(/C(F)=C/c2cc(C(=O)N[C@H]3CCCC[C@@H]3O)ccc2F)cn1` [Example 191, 3-[(Z)-2-(6-aminopyridin-3-yl)-2-fluoroethenyl]-4-fluoro-N-[(1S,2S)-2-hydroxycyclohexyl]benzamide], the IC50 in assay [1] amounted to 29 nM; at PDGFR-β it was 35 nM.

The values above are taken from patent publication US12509424B2, “Compound and composition as PDGF receptor kinase inhibitor” (NIPPON SHINYAKU CO., LTD., priority 2019, dated 2025).
